Measurements published in patent publication EP0600950B1, “AMIDE TETRAZOLE ACAT INHIBITORS” (priority 1991, dated 1993).

Legend:
[1] = target: acyl-CoA: cholesterol acyltransferase (ACAT); assay: in vitro ACAT inhibition, rat liver microsomes (LAI); format: biochemical; settings: radiolabeled cholesterol oleate formed from radiolabeled oleic acid
Source text: (§1) The test assesses the ability of a test compound to inhibit the acylation of cholesterol by oleic acid by measuring the amount of radiolabeled cholesterol oleate formed from radiolabeled oleic acid in a tissue preparation containing rabbit intestinal microsomes (designated IAI) or from rat liver microsomes (designated LAI).

[2] = target: acyl-CoA: cholesterol acyltransferase (ACAT); assay: in vitro ACAT inhibition, rabbit intestinal microsomes (IAI); format: biochemical; settings: radiolabeled cholesterol oleate formed from radiolabeled oleic acid
Source text: as §1

male Sprague-Dawley rats = assay: in vivo screen APCC, cholesterol-fed rats, blood cholesterol; settings: Table 2, dosed at 30 mg/kg unless otherwise noted, high fat, high cholesterol diet with 0.5% cholic acid overnight, blood cholesterol vs vehicle
Source text: In one in vivo screen designated APCC, male Sprague-Dawley rats (200 to 225 g) were randomly divided into treatment groups and dosed at 4 PM with either vehicle (CMC/Tween) or suspensions of compounds in vehicle. The normal chow diet was then replaced with a high fat, high cholesterol diet with 0.5% cholic acid. The rats consumed this diet ad libitum during the night and were sacrificed at 8 AM to obtain blood samples for cholesterol analysis using standard procedures. Statistical differences between mean cholesterol values for the same vehicle were determined using analysis of variance followed by Fisher's least significant test.

Molecule	IC50 [1]	IC50 [2]	further results
COc1cc(OC)c(NC(=O)C(c2ccccc2)n2nnc(C(c3ccccc3)c3ccccc3)n2)c(OC)c1 (racemic) [Example 96, (±)-5-(diphenylmethyl)-α-phenyl-N-(2,4,6-trimethoxyphenyl)-2H-tetrazole-2-acetamide]	190 nM	–	–
CCCCCCCCCCCCc1nnn(C(C(=O)Nc2c(C(C)C)cccc2C(C)C)c2ccccc2)n1 (racemic) [Example 92, (±)-N-[2,6-bis(1-methylethyl)phenyl]-5-dodecyl-α-phenyl-2H-tetrazole-2-acetamide]	15 nM	–	–
CCCCCCCCCCCCc1nnn(CC(=O)Nc2c(OC)cc(OC)cc2OC)n1 [Example 97, 5-dodecyl-N-(2,4,6-trimethoxy-phenyl)-2H-tetrazole-2-acetamide]	56 nM	–	–
CC(C)c1cccc(C(C)C)c1NC(=O)C(c1ccccc1)n1nnc(C(c2ccccc2)c2ccccc2)n1 (racemic) [Example 90, (±)-N-[2,6-bis(1-methylethyl)phenyl]-5-(diphenylmethyl)-α-phenyl-2H-tetrazole-2-acetamide]	100 nM	–	–
CCCCCCCCCCCCc1nnn(C(CCCCC)C(=O)Nc2c(OC)cc(OC)cc2OC)n1 (racemic) [Example 99, (±)-5-dodecyl-α-pentyl-N-(2,4,6-trimethoxyphenyl)-2H-tetrazole-2-acetamide]	32 nM	–	–
CCCCCCCCCCCCc1nnn(C(C)(C)C(=O)Nc2c(OC)cc(OC)cc2OC)n1 [Example 102, 5-dodecyl-α,α-dimethyl-N-(2,4,6-trimethoxyphenyl)-2H-tetrazole-2-acetamide]	42 nM	–	–
CCCCCCCCCCCCSc1nnn(C(C(=O)Nc2c(C(C)C)cccc2C(C)C)c2ccccc2)n1 (racemic) [Example 94, (±)-N-[2,6-bis(1-methylethyl)phenyl-5-(dodecylthio)-α-phenyl-2H-tetrazole-2-acetamide]	29 nM	–	–
CCCCCCCCCCCCc1nnn(CC(=O)Nc2c(C(C)C)cccc2C(C)C)n1 [Example 91]	6 nM	–	–
CCCCCCCCCCc1nnn(C(C(=O)Nc2c(OC)cc(OC)cc2OC)c2ccccc2)n1 (racemic) [Example 95, (±)-5-decyl-α-phenyl-N-(2,4,6-trimethoxyphenyl-2H-tetrazole-2-acetamide]	58 nM	–	–
CCCCCCCCCCCC[S+]([O-])c1nnn(C(C(=O)Nc2c(OC)cc(OC)cc2OC)c2ccccc2)n1 (racemic) [Example 104, (±)-5-(dodecylsulfinyl)-α-phenyl-N-(2,4,6)-trimethoxyphenyl)-2H-tetrazole-2-acetamide]	55 nM	–	–
CCCCCCCCCCc1nnnn1CC(=O)Nc1c(C(C)C)cccc1C(C)C [Example 89, N-[2,6-bis(1-methylethyl)phenyl]-5-decyl-1H-tetrazole-1-acetamide]	390 nM	–	–
CCCCCCCCCCCCSc1nnn(C(C(=O)Nc2c(OC)cc(OC)cc2OC)c2ccccc2)n1 (racemic) [Example 103, (±)-5-(dodecylthio)-α-phenyl-N-(2,4,6-trimethoxyphenyl)-2H-tetrazole-2-acetamide]	49 nM	–	–
CCCCCCCCCCCCc1nnn(C(C(=O)Nc2c(OC)cc(OC)cc2OC)c2ccccc2)n1 (racemic) [Example 98, (±)-5-dodecyl-α-phenyl-N-(2,4,6-trimethoxyphenyl)-2H-tetrazole-2-acetamide]	21 nM	–	–
CCCCCCCCCCc1nnn(CC(=O)Nc2c(C(C)C)cccc2C(C)C)n1 [Example 88, N-[2,6-bis(1-methylethyl)phenyl]-5-decyl-2H-tetrazole-2-acetamide]	10 nM	–	–
CCCCCCCCCCCCc1nnn(CC(=O)Nc2ccc(F)cc2F)n1 [Example 101, N-(2,4-difluorophenyl)-5-dodecyl-2H tetrazole-2-acetamide]	> 5000 nM	–	–
CCCCCCCCCCCCc1nnn(C(CCCCC)C(=O)Nc2c(C(C)C)cccc2C(C)C)n1 (racemic) [Example 93, (±)-N-[2,6-bis(1-methylethyl)phenyl]-5-dodecyl-α-pentyl-2H-tetrazole-2-acetamide]	22 nM	–	–
CCCCCCCCCCCCn1nnc(C(C(=O)Nc2ncccc2C)c2ccccc2)n1 (racemic) [Example 23, (±)-2-dodecyl-N-(3-methyl-2-pyridinyl)-α-phenyl-2H-tetrazole-5-acetamide]	–	7.5 nM	–
CCCCCCCCCCCCn1nnc(C(C(=O)Nc2ccc3c(C)cc(C)nc3n2)c2ccccc2)n1 (racemic) [Example 17, (±)-N-(5,7-dimethyl-1,8-naphthyridine-2-yl)-2-dodecyl-α-phenyl-2H-tetrazole-5-acetamide]	–	190 nM	–
(±)-2-Dodecyl-β-phenyl-N-(2,4-6-trimethoxyphenyl)-2H-tetrazole-5-propanamide and (±)-1-dodecyl-β-phenyl-N-(2,4,6-trimethoxyphenyl)-^1H-tetrazole-5-acetamide [Example 45]	–	230 nM	APCC (% ΔTC) (male Sprague-Dawley rats): -60%
CCCCCCCCCCCCn1nnc(C(Cc2ccccc2)C(=O)Nc2c(OC)cc(OC)cc2OC)n1 (racemic) [Example 59, (±)-2-Dodecyl-α-(phenylmethyl)-N-(2,4,6-trimethoxyphenyl)-2H-tetrazole-5-acetamide]	–	49 nM	–
CCCCCCCCCCCCn1nnc(C(C)(C(=O)Nc2c(OC)cc(OC)cc2OC)c2ccccc2)n1 (racemic) [Example 44, (±)-2-Dodecyl-α-methyl-α-phenyl-N-(2,4,6-trimethoxyphenyl)-2H-tetrazole-5-acetamide]	–	29 nM	–
CCCCCCCCCCCCCCn1nnnc1CC(=O)Nc1c(OC)cc(OC)cc1OC [Example 50, 1-tetradecyl-N-(2,4,6-tri-methoxyphenyl)-1H-tetrazole-5-acetamide]	–	1000 nM	–
CCCCCCCCCCCCn1nnc(C(C(=O)Nc2c(OC)cc(OC)cc2OC)c2ccc3ccccc3c2)n1 (racemic) [Example 53, (±)-2-Dodecyl-α-2-naphthalenyl-N-(2,4,6-trimethoxyphenyl)-2H-tetrazole-5-acetamide]	–	97 nM	–
CCCCCCCCCCCCn1nnnc1C(C(=O)Nc1ccc(F)cc1F)c1ccccc1 (racemic) [Example 25, (±)-N-(2,4-Difluorophenyl)-1-dodecyl-α-phenyl-1H-tetrazole-5-acetamide]	–	800 nM	–
CCCCCCCCCCCCc1nnn(C(C(=O)Nc2ccc(F)cc2F)c2ccccc2)n1 (racemic) [Example 100, (±)-N-(2,4-difluorophenyl-5-dodecyl-α-phenyl-2H-tetrazole-2-acetamide]	80 nM	–	–
